Biological target: T1, chimeric human H3 receptor (Homo sapiens, UniProt Q9Y5N1)
T1 construct: rat Galpha-i2 (Gnai2, rat); made in house; host or cells: Sf9 insect cells (baculovirus); P2 membranes
Assay: Chimeric human H3 receptor screening GTP binding assay (inhibition of histamine-stimulated GTP-gamma35S binding, Example 8)
Format: biochemical
Conditions: 1 h; assay described in Example 8; symbol "!" in column headed Ki; read-out: Ki ("!": percent inhibition of agonist-induced GTP-gammaS binding to H3)
Summary of the method: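 Compound tested at 4 μM against 1 μM histamine stimulation; 125 pM GTP-gamma35S binding measured by filtration and scintillation after 60 min at room temperature. Membranes from Sf9 cells expressing chimeric human H3 plus G-protein subunits, in Tris pH 7.4/NaCl/MgCl2/GDP buffer; values are % inhibition after nonspecific subtraction.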

T1 sequence (Q9Y5N1 with tags, fused parts or gaps): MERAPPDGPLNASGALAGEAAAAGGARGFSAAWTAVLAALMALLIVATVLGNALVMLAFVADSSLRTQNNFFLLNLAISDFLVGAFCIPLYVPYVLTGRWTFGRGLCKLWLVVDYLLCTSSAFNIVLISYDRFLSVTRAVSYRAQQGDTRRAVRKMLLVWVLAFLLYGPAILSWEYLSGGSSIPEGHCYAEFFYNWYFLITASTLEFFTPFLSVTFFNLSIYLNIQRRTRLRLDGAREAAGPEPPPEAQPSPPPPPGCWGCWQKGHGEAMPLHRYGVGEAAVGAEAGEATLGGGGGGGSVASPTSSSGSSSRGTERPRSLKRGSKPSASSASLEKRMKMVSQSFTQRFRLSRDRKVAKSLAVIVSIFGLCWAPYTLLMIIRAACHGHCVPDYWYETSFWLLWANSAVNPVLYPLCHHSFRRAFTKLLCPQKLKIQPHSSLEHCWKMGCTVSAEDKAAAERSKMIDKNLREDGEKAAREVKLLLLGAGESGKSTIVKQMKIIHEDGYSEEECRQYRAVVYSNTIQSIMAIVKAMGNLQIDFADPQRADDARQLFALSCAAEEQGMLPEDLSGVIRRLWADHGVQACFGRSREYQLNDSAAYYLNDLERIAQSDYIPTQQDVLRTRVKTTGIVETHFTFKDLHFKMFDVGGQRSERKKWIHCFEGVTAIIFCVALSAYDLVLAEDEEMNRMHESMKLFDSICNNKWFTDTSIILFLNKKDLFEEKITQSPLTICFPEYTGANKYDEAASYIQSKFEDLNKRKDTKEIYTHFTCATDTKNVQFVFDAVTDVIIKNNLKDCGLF

Inhibition at 4 µM, ≥ 90%:
O=C(c1csc(-c2ccncc2)n1)N1CCc2cnc(N3CCN(C4CCC4)CC3)nc2CC1 [Compound 530, 2-(4-cyclobutylpiperazin-1-yl)-7-[(2-pyridin-4-yl-1,3-thiazol-4-yl)carbonyl]-6,7,8,9-tetrahydro-5H-pyrimido[4,5-d]azepine]
Nc1ccccc1C(=O)N1CCc2cnc(N3CCN(C4CCC4)CC3)nc2CC1 [Compound 531, 2-{[2-(4-cyclobutylpiperazin-1-yl)-5,6,8,9-tetrahydro-7H-pyrimido[4,5-d]azepin-7-yl]carbonyl}aniline]
Cc1ccc(C(=O)N2CCc3cnc(N4CCN(C5CCC5)CC4)nc3CC2)cc1N [Compound 532, 5-{[2-(4-cyclobutylpiperazin-1-yl)-5,6,8,9-tetrahydro-7H-pyrimido[4,5-d]azepin-7-yl]carbonyl}-2-methylaniline]
Nc1ccc(C(=O)N2CCc3cnc(N4CCN(C5CCC5)CC4)nc3CC2)cc1 [Compound 533, 4-{[2-(4-cyclobutylpiperazin-1-yl)-5,6,8,9-tetrahydro-7H-pyrimido[4,5-d]azepin-7-yl]carbonyl}aniline]
CNc1ccccc1C(=O)N1CCc2cnc(N3CCN(C4CCC4)CC3)nc2CC1 [Compound 534, 2-{[2-(4-cyclobutylpiperazin-1-yl)-5,6,8,9-tetrahydro-7H-pyrimido[4,5-d]azepin-7-yl]carbonyl}-N-methylaniline]
CNc1ccc(C(=O)N2CCc3cnc(N4CCN(C5CCC5)CC4)nc3CC2)cc1 [Compound 535, 4-{[2-(4-cyclobutylpiperazin-1-yl)-5,6,8,9-tetrahydro-7H-pyrimido[4,5-d]azepin-7-yl]carbonyl}-N-methylaniline]
Nc1ccc(Cl)cc1C(=O)N1CCc2cnc(N3CCN(C4CCC4)CC3)nc2CC1 [Compound 536, 4-chloro-2-{[2-(4-cyclobutylpiperazin-1-yl)-5,6,8,9-tetrahydro-7H-pyrimido[4,5-d]azepin-7-yl]carbonyl}aniline]
Cc1cccc(C(=O)N2CCc3cnc(N4CCN(C5CCC5)CC4)nc3CC2)c1N [Compound 537, 2-{[2-(4-cyclobutylpiperazin-1-yl)-5,6,8,9-tetrahydro-7H-pyrimido[4,5-d]azepin-7-yl]carbonyl}-6-methylaniline]
Cc1c(N)cccc1C(=O)N1CCc2cnc(N3CCN(C4CCC4)CC3)nc2CC1 [Compound 538, 3-{[2-(4-cyclobutylpiperazin-1-yl)-5,6,8,9-tetrahydro-7H-pyrimido[4,5-d]azepin-7-yl]carbonyl}-2-methylaniline]
Cc1ccc(N)c(C(=O)N2CCc3cnc(N4CCN(C5CCC5)CC4)nc3CC2)c1 [Compound 539, 2-{[2-(4-cyclobutylpiperazin-1-yl)-5,6,8,9-tetrahydro-7H-pyrimido[4,5-d]azepin-7-yl]carbonyl}-4-methylaniline]
Nc1cc(Cl)ccc1C(=O)N1CCc2cnc(N3CCN(C4CCC4)CC3)nc2CC1 [Compound 540, 5-chloro-2-{[2-(4-cyclobutylpiperazin-1-yl)-5,6,8,9-tetrahydro-7H-pyrimido[4,5-d]azepin-7-yl]carbonyl}aniline]
CCCSc1ncccc1C(=O)N1CCc2cnc(N3CCN(C4CCC4)CC3)nc2CC1 [Compound 541, 2-(4-cyclobutylpiperazin-1-yl)-7-{[2-(propylthio)pyridin-3-yl]carbonyl}-6,7,8,9-tetrahydro-5H-pyrimido[4,5-d]azepine]
COc1ccc(C(=O)N2CCc3cnc(N4CCN(C5CCC5)CC4)nc3CC2)c(OC)n1 [Compound 542, 2-(4-cyclobutylpiperazin-1-yl)-7-[(2,6-dimethoxypyridin-3-yl)carbonyl]-6,7,8,9-tetrahydro-5H-pyrimido[4,5-d]azepine]
CCOc1ncccc1C(=O)N1CCc2cnc(N3CCN(C4CCC4)CC3)nc2CC1 [Compound 543, 2-(4-cyclobutylpiperazin-1-yl)-7-[(2-ethoxypyridin-3-yl)carbonyl]-6,7,8,9-tetrahydro-5H-pyrimido[4,5-d]azepine]
COc1ncc(Cl)cc1C(=O)N1CCc2cnc(N3CCN(C4CCC4)CC3)nc2CC1 [Compound 544, 7-[(5-chloro-2-methoxypyridin-3-yl)carbonyl]-2-(4-cyclobutylpiperazin-1-yl)-6,7,8,9-tetrahydro-5H-pyrimido[4,5-d]azepine]
CCCOc1ncccc1C(=O)N1CCc2cnc(N3CCN(C4CCC4)CC3)nc2CC1 [Compound 545, 2-(4-cyclobutylpiperazin-1-yl)-7-[(2-propoxypyridin-3-yl)carbonyl]-6,7,8,9-tetrahydro-5H-pyrimido[4,5-d]azepine]
CC(C)Oc1ncccc1C(=O)N1CCc2cnc(N3CCN(C4CCC4)CC3)nc2CC1 [Compound 546, 2-(4-cyclobutylpiperazin-1-yl)-7-[(2-isopropoxypyridin-3-yl)carbonyl]-6,7,8,9-tetrahydro-5H-pyrimido[4,5-d]azepine]
O=C(/C=C/c1ccccc1F)N1CCc2cnc(N3CCN(C4CCC4)CC3)nc2CC1 [Compound 547, 2-(4-cyclobutylpiperazin-1-yl)-7-[(2E)-3-(2-fluorophenyl)prop-2-enoyl]-6,7,8,9-tetrahydro-5H-pyrimido[4,5-d]azepine]
O=C(/C=C/c1ccc(F)cc1)N1CCc2cnc(N3CCN(C4CCC4)CC3)nc2CC1 [Compound 548, 2-(4-cyclobutylpiperazin-1-yl)-7-[(2E)-3-(4-fluorophenyl)prop-2-enoyl]-6,7,8,9-tetrahydro-5H-pyrimido[4,5-d]azepine]
O=C(/C=C/c1ccc(Cl)cc1)N1CCc2cnc(N3CCN(C4CCC4)CC3)nc2CC1 [Compound 549, 7-[(2E)-3-(4-chlorophenyl)prop-2-enoyl]-2-(4-cyclobutylpiperazin-1-yl)-6,7,8,9-tetrahydro-5H-pyrimido[4,5-d]azepine]
O=C(/C=C/c1ccc(C(F)(F)F)cc1)N1CCc2cnc(N3CCN(C4CCC4)CC3)nc2CC1 [Compound 550, 2-(4-cyclobutylpiperazin-1-yl)-7-{(2E)-3-[4-(trifluoromethyl)phenyl]prop-2-enoyl}-6,7,8,9-tetrahydro-5H-pyrimido[4,5-d]azepine]
O=C(/C=C/c1ccc(Cl)c(Cl)c1)N1CCc2cnc(N3CCN(C4CCC4)CC3)nc2CC1 [Compound 551, 2-(4-cyclobutylpiperazin-1-yl)-7-[(2E)-3-(3,4-dichlorophenyl)prop-2-enoyl]-6,7,8,9-tetrahydro-5H-pyrimido[4,5-d]azepine]
O=C(/C=C/c1cccc(Cl)c1)N1CCc2cnc(N3CCN(C4CCC4)CC3)nc2CC1 [Compound 552, 7-[(2E)-3-(3-chlorophenyl)prop-2-enoyl]-2-(4-cyclobutylpiperazin-1-yl)-6,7,8,9-tetrahydro-5H-pyrimido[4,5-d]azepine]
O=C(/C=C/c1cccc(F)c1)N1CCc2cnc(N3CCN(C4CCC4)CC3)nc2CC1 [Compound 553, 2-(4-cyclobutylpiperazin-1-yl)-7-[(2E)-3-(3-fluorophenyl)prop-2-enoyl]-6,7,8,9-tetrahydro-5H-pyrimido[4,5-d]azepine]
O=C(/C=C/c1cccc(F)c1F)N1CCc2cnc(N3CCN(C4CCC4)CC3)nc2CC1 [Compound 554, 2-(4-cyclobutylpiperazin-1-yl)-7-[(2E)-3-(2,3-difluorophenyl)prop-2-enoyl]-6,7,8,9-tetrahydro-5H-pyrimido[4,5-d]azepine]
O=C(/C=C/c1cccc(C(F)(F)F)c1)N1CCc2cnc(N3CCN(C4CCC4)CC3)nc2CC1 [Compound 555, 2-(4-cyclobutylpiperazin-1-yl)-7-{(2E)-3-[3-(trifluoromethyl)phenyl]prop-2-enoyl}-6,7,8,9-tetrahydro-5H-pyrimido[4,5-d]azepine]
O=C(/C=C/c1ccc(-c2ccccc2)cc1)N1CCc2cnc(N3CCN(C4CCC4)CC3)nc2CC1 [Compound 556, 7-[(2E)-3-biphenyl-4-ylprop-2-enoyl]-2-(4-cyclobutylpiperazin-1-yl)-6,7,8,9-tetrahydro-5H-pyrimido[4,5-d]azepine]
Cc1ccc(/C=C/C(=O)N2CCc3cnc(N4CCN(C5CCC5)CC4)nc3CC2)cc1 [Compound 557, 2-(4-cyclobutylpiperazin-1-yl)-7-[(2E)-3-(4-methylphenyl)prop-2-enoyl]-6,7,8,9-tetrahydro-5H-pyrimido[4,5-d]azepine]
COc1ccc(/C=C/C(=O)N2CCc3cnc(N4CCN(C5CCC5)CC4)nc3CC2)cc1 [Compound 558, 2-(4-cyclobutylpiperazin-1-yl)-7-[(2E)-3-(4-methoxyphenyl)prop-2-enoyl]-6,7,8,9-tetrahydro-5H-pyrimido[4,5-d]azepine]
CC(C)c1ccc(/C=C/C(=O)N2CCc3cnc(N4CCN(C5CCC5)CC4)nc3CC2)cc1 [Compound 559, 2-(4-cyclobutylpiperazin-1-yl)-7-[(2E)-3-(4-isopropylphenyl)prop-2-enoyl]-6,7,8,9-tetrahydro-5H-pyrimido[4,5-d]azepine]

Reference: patent US20080051387A1, “TETRAHYDROPYRIDO[3,4-D]PYRIMIDINES AND RELATED ANALOGUES” (priority 2006, published 2008)
